Measurements taken from US12459894B2, “Orally active melanocortin receptor-4 compounds” (Palatin Technologies, Inc., priority 2018, dated 2025).
pEC50, pKi: −log10 of the molar value.

How the values were obtained:
MC4r [1] = molecular target: T1, MC4r (Homo sapiens, UniProt P32245); assay: Competitive inhibition binding assay, MC4r; design: expressed in transfected cells; host or cells: HEK-293 (membrane homogenates); settings: binding studies
Procedure: A competitive inhibition binding assay is performed using membrane homogenates prepared from HEK-293 cells that express recombinant hMC1ra, hMC4r, hMC3r, or hMC5r, and from B16-F10 mouse melanoma cells (containing endogenous MC1r). In the examples that follow, all values are for human recombinant receptors unless otherwise noted. Assays are performed in 96 well GF/B Millipore multiscreen filtration plates (MAFB NOB10) pre-coated with 0.5% bovine serum albumin (Fraction V). […] After incubation for 60 to 90 minutes at 37° C., the assay mixture is filtered and the membranes washed three times with ice-cold buffer. Filters are dried and counted in a gamma counter for bound radioactivity.
Maximal specific binding (100%) is defined as the difference in radioactivity (cpm) bound to cell membranes in the absence and presence of 1 μM NDP-α-MSH. […] Each assay is conducted in duplicate or triplicate and the actual mean values are described, with results less than 0% reported as 0%. Ki values for test compounds are determined using Graph-Pad Prism® curve-fitting software.
Competitive Binding Assay Using Eu-NDP-α-MSH. […] The plates were incubated on a shaker for 15 minutes and read at 340 nm excitation and 615 nm emission wavelengths. […] Ki values were determined by curve-fitting with Graph-Pad Prism® software using a one-site fixed-slope competition binding model.

MC4r [2] = molecular target: T1, MC4r; assay: Functional cAMP study in human MC4r expression system approximating maximal physiologic receptor densities; format: cell-based; design: host or cells: TREx-293 transfected with pcDNA4/TO/MC4R
Procedure: Assay for Agonist Activity. Accumulation of intracellular cAMP was examined as a measure of the ability of the peptides of the present invention to elicit a functional response in HEK-293 cells that express MC4-R. Confluent HEK-293 cells that express recombinant hMC4-R were detached from culture plates by incubation in enzyme-free cell dissociation buffer. Dispersed cells were suspended in Hanks' Balanced Salt Solution containing 10 mM HEPES (pH 7.5), 1 mM MgCl2, 1 mM glutamine, 0.5% albumin and 0.3 mM 3-isobutyl-1-methyl-xanthine (IBMX), a phosphodiesterase inhibitor. The cells were plated in 96-well plates at a density of 0.5×10^5 cells per well and pre-incubated for 10 minutes. Cells were exposed for 15 minutes at 37° C. to peptides of the present invention dissolved in DMSO (final DMSO concentration of 1%) at a concentration range of 0.05-5000 nM in a total assay volume of 200 μL. NDP-α-MSH was used as the reference agonist. cAMP levels were determined by an HTRF® cAMP cell-based assay system from Cisbio Bioassays utilizing cryptate-labeled anti-cAMP and d2-labeled cAMP, with plates read on a Perkin-Elmer Victor plate reader at […]. Data analysis was performed by nonlinear regression analysis with Graph-Pad Prism® software. The maximum efficacies of the test peptides of the present invention were compared to that achieved by the reference melanocortin agonist NDP-αMSH. […]

T1 sequence (P32245 whole entry): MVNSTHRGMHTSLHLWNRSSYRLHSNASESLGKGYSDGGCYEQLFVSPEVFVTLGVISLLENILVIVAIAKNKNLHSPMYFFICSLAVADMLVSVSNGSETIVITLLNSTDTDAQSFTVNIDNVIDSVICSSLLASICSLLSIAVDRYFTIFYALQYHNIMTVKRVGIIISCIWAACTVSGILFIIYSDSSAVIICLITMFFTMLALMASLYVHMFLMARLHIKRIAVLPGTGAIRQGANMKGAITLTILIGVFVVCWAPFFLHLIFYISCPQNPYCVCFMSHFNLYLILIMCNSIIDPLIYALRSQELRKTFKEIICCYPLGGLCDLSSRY

With `CNC(C)(C)C(=O)N[C@H](Cc1ccc(Cl)cc1)C(=O)N1CCN(N(CC(C)C)C2CCN(C(C)=O)CC2)CC1` [Compound 7.9, N-[(1R)-2-[4-[(1-acetyl-4-piperidyl)-isobutyl-amino]piperazin-1-yl]-1-[(4-chlorophenyl)methyl]-2-oxo-ethyl]-2-methyl-2-(methylamino)propanamide] the pKi (MC4r [1]) was 8.30, the pEC50 (MC4r [2]) was 8.30 and the Emax (MC4r [2]; read-out: relative efficacy, compared to NDP-α-MSH) was 19%.
